From publication PMC8300937, “New azolyl-derivatives as multitargeting agents against breast cancer and fungal infections: synthesis, biological evaluation and docking study” (Journal of Enzyme Inhibition and Medicinal Chemistry, 2021)
≈ marks a conversion by molar mass, not a printed value. Where “and” joins values, the source holds several entries; their conditions need not be identical. Equal entries are not always repeated. Where two headings read alike, the source gives them in different places.

Key:
aromatase (CYP19A) = biological target: T1, aromatase (CYP19A) (Homo sapiens, UniProt P11511); test: Aromatase inhibition, fluorimetric assay kit (Aromatase-CYP19A Inhibitor Screening kit, BioVision); type: biochemical; settings: read-out: Aromatase % inhibition
T1 construct: purchased BioVision
T1 sequence (P11511 1-503): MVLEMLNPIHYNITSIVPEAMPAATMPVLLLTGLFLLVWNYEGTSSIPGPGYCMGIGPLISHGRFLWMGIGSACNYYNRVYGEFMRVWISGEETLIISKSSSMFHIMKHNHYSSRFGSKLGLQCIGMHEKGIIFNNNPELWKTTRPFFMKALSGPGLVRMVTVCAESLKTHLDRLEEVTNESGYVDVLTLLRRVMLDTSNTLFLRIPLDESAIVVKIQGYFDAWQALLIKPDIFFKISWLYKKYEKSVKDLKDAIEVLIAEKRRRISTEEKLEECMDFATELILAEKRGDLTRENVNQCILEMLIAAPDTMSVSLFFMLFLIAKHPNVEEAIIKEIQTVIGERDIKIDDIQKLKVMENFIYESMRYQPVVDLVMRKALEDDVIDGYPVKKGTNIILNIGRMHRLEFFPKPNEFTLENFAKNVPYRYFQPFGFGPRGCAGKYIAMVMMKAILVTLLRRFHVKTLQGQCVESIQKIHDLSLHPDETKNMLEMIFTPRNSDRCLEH
Procedure: The aromatase inhibitory activity of the novel compounds was determined using a commercial fluorimetric kit (Aromatase CYP19A Inhibitor Screening kit, BioVision, Milpitas, CA, USA). The assay utilises a fluorogenic aromatase substrate, that is converted into a highly fluorescent metabolite detected in the visible range (Ex/Em = 488/527 nm), ensuring a high signal-to-background ratio with little interference by autofluorescence.

Recombinant human iNOS = biological target: T2, Recombinant human iNOS (Homo sapiens, UniProt P35228); test: iNOS inhibition, L-citrulline assay with fluorimetric (HPLC) detection; type: biochemical; settings: for iNOS % inhibition: compounds at 1 µM, normalised to 1400 W (positive control, 100% inhibition at 1 μM), triplicate, mean ± SD; for inhibition at 1 µM: read-out: iNOS % inhibition
T2 construct: purchased Enzo Life Sciences, Inc
Procedure: The injection volume was 5 μL.
Recombinant human iNOS was purchased from Enzo Life Sciences, Inc. (New York, USA).

[1] = tested on: MCF-7 breast cancer cell line; test: Cell metabolic activity (MTT assay); type: cell-based; settings: Homo sapiens, read-out: IC50 cell metabolic activity (MTT)
Procedure: (§1) Human breast cancer MCF-7 (HTB-22™) cells were purchased from ATCC® and maintained in Dulbecco’s Modified Eagle Medium (DMEM) high glucose supplemented with 10% of foetal bovine serum (FBS) and 1% of penicillin/streptomycin (all from Gibco-Thermofisher Scientific, MD, USA) at 37 °C and 5% CO2.
Cell metabolic activity of MCF-7 human breast cancer cells was assessed by MTT (3–(4,5-dimethylthiazol-2-yl)-2,5-diphenyltetrazolium bromide) test (Sigma Aldrich, Milan, Italy). Cells were seeded (0.1 × 10^4/well) in a 96-well tissue culture-treated plate (Falcon®, Corning Incorporated, NY, USA) and let them adhere for 24 h. Next, the cell monolayer was incubated in the presence of loading concentrations of compounds 2, 5 and 6 (0–400 µM) diluted in DMSO (final concentration 0.2%) for 24, 48 and 72 h. After the exposure time, cells were incubated with 100 μL/well of MTT (5 mg/mL) 1:10 with fresh growth medium (final concentration 0.5 mg/mL) for 4 h at 37 °C and 5% CO2. Finally, the MTT solution was removed and replaced with 100 µL/well of DMSO. Cells were incubated for an additional 20 min at 37 °C and 5% CO2 and afterward gently swirled for 10 min at room temperature. The optical density was measured at 540 nm by means of a spectrophotometer (Multiskan GO, Thermo Scientific, Monza, Italy). Results were expressed as the percentage of cells in the presence of vehicle (DMSO) set as 100% and each experiment was performed in triplicate (n = 3). Concentration-response curves and IC50 were fitted and calculated with the GraphPad Prism 5.0 (GraphPad Software, San Diego, CA, USA)[27].

C. albicans ATCC 90028 = test: Antifungal broth microdilution (EUCAST), standard strain; type: cell-based; settings: Candida albicans
Procedure: The antifungal activity of the most representative compounds was evaluated versus one ATCC 90028 strain and 15 clinical isolates belonging to the most clinically relevant Candida spp. (C. albicans, C. tropicalis, and C. glabrata). All strains were stored at −80 °C in Sabouraud Broth (Oxoid LTD, Basingstoke, Hampshire, England) with 20% of glycerine until their use. The strains were grown on Sabouraud CAF agar (Thermo Fisher Scientific Waltham, MA, USA), and incubated for 24–48 h at 37 °C. […] The in vitro antifungal activity was determined by broth microdilution method with RPMI 1640 (Sigma-Aldrich. ST Louis, MO, USA) as recommended by EUCAST, and the E. Def 7.3, method document (http://www.eucast.org). […] Each plate included the following controls: (i) inoculum suspension (growth control), (ii) drug-free medium, (iii) medium with drug, and (iv) distilled water (used for the inoculum preparation). Fluconazole was used as a reference drug according to the EUCAST guidelines. The plates were incubated for 24 h at 37 °C, and then read with a plate reader at 530 nm. […] Three independent experiments were performed in triplicate.

[2] = Chemical stability in aqueous media at 37 °C (HPLC); type: physicochemical
Procedure: Compounds 2 and 5 contain an ester linkage, therefore their chemical stability was evaluated. Phosphate buffer (pH = 7.4), HCl solution (pH = 2.0), NaOH solution (pH = 9.0) were adopted as media. […] Solutions were kept at 37 °C and monitored for 24 h.
A 0.01 M hydrochloric acid buffer (pH 2), as a non-enzymatic simulated gastric fluid (SGF), a 0.01 M phosphate buffer (pH 7.4) as non-enzymatic simulated intestinal fluid (SIF), and a 0.1 mM sodium hydroxide solution (pH 10) were used in this study. The reactions were initiated by adding 0.1 ml of compound stock solution (1 mg/mL in DMSO) to 1.9 ml aqueous buffer solution, in screw-capped vials at 37 ± 0.5 °C. Samples (5 µL) were withdrawn at appropriate intervals, i.e. after 5 min, 1 h, 2 h, 3 h, 4 h, 6 h, 8 h, and then after 24 h incubation time and analysed by HPLC.

MCF-7 cell line = test: Cytotoxicity test (lactate dehydrogenase release); type: cell-based, human; settings: MCF-7, 24 h, DMSO control set as 1
Procedure: as §1
After 24 h, cell supernatants were collected from the MTT plate, centrifuged at 450 × g for 4 min and stored on ice. To quantify the cytotoxicity of loading concentrations of compounds 2, 5 and 6 (0–400 µM), the CytoTox 96® Non-Radioactive Cytotoxicity Assay (Promega Corporation, WI, USA) was performed. The CytoTox 96® Assay quantitatively measures lactate dehydrogenase (LDH), a stable cytosolic enzyme released upon cell lysis. The absorbance signal resulting from the conversion of a tetrazolium salt (iodonitrotetrazolium violet; INT) into a red formazan product was measured at 490 and 690 nm (background) with a spectrophotometer (Multiskan GO, Thermo Scientific, Monza, Italy). The results were normalised on MTT absorbances and expressed as fold increases on the LDH released by cultures in the presence of vehicle (DMSO) set as 1.

aromatase = settings: Figure 1; cited from earlier work
[3] = ATCC90028, C. albicans ATCC 90028, 24 h, ≥50% growth inhibition, read-out: MIC

| Structure (SMILES) | inhibition at 1 µM (aromatase (CYP19A)) [%] | inhibition at 1 µM (Recombinant human iNOS) [%] | MIC (C. albicans ATCC 90028; [3]) [µg/mL] | melting point [°C] | further results |
| --- | --- | --- | --- | --- | --- |
| N#Cc1ccc(C(c2ccc(C#N)cc2)n2cncn2)cc1 [letrozole, reference compound] | 100 | – | – | – | – |
| OC(Cc1ccccc1)Cn1ccnc1 (centres unmarked) [Compound 1, 1-(1H-imidazol-1-yl)-3-phenylpropan-2-ol] | – | – | – | – | iNOS % inhibition (Recombinant human iNOS): complete enzyme inhibition |
| O=C(NCc1ccccc1)OC(Cc1ccccc1)Cn1ccnc1 (centres unmarked) [Compound 6, 1-benzyl-2-(1H-imidazol-1-yl)ethyl benzylcarbamate] | 72 ± 1.4 | 52 ± 0.7 | > 64 | – | IC50 ([1]; MCF7, MCF-7, 24 h exposure): > 400 µM |
| COc1ccc(S(=O)(=O)N2CCCC(Cn3cncn3)C2)c(OC)c1 (centres unmarked) [Compound 15, 1-[(2,4-dimethoxyphenyl)sulphonyl]-3-(1H-1,2,4-triazol-1-ylmethyl)piperidine] | 62 ± 2.8 | 18 ± 0.1 | – | – | – |
| Cc1ccc(S(=O)(=O)N2CCCC(Cn3cncn3)C2)cc1[N+](=O)[O-] (centres unmarked) [Compound 17, 1-[(4-methyl-3-nitrophenyl)sulphonyl]-3-(1H-1,2,4-triazol-1-ylmethyl)piperidine] | 25 ± 1.3 | 39 ± 0.2 | > 64 | 105 to 106 | – |
| COc1cc(C)ccc1NC(=S)OC(Cc1ccccc1)Cn1ccnc1 (centres unmarked) [Compound 8, O-[1-benzyl-2-(1H-imidazol-1-yl)ethyl] (2-methoxy-4-methylphenyl)thiocarbamate] | 54 ± 0.9 | 12 ± 0.1 | – | 120 to 121 | – |
| O=S(=O)(c1ccccc1)N1CCCC(Cn2cncn2)C1 (centres unmarked) [Compound 13, 1-(phenylsulfonyl)-3-(1H-1,2,4-triazol-1-ylmethyl)piperidine] | 29 ± 1.5 | 27 ± 0.4 | – | 72 to 73 | – |
| O=C(OC(Cc1ccccc1)Cn1ccnc1)c1cccc(C(=O)c2ccccc2)c1 (centres unmarked) [Compound 4, 1-benzyl-2-(1H-imidazol-1-yl)ethyl 3-benzoylbenzoate] | 36 ± 1.2 | 47 ± 1.3 | > 64 | 86 to 87 | – |
| CC(=N)NCc1cccc(CN)c1 [1400 W, reference compound] | – | – | – | – | iNOS % inhibition (Recombinant human iNOS): 100% |
| Cc1ccc(S(=O)(=O)N2CCCC(Cn3cncn3)C2)cc1 (centres unmarked) [Compound 14, 1-[(4-methylphenyl)sulphonyl]-3-(1H-1,2,4-triazol-1-ylmethyl)piperidine] | 32 ± 1.2 | 22 ± 0.5 | – | – | – |
| OC(Cn1cncn1)(Cn1cncn1)c1ccc(F)cc1F [Fluconazole, reference compound] | – | – | 0.25 (≈ 0.816 µM) | – | – |
| CC(=O)Nc1ccc(S(=O)(=O)N2CCCC(Cn3cncn3)C2)cc1 (centres unmarked) [Compound 20, N-(4-{[3-(1H-1,2,4-triazol-1-ylmethyl)piperidin-1-yl]sulphonyl}phenyl)acetamide] | 61 ± 2.1 | 0 | – | – | – |
| O=[N+]([O-])c1cccc(S(=O)(=O)N2CCCC(Cn3cncn3)C2)c1 (centres unmarked) [Compound 16, 1-[(3-nitrophenyl)sulphonyl]-3-(1H-1,2,4-triazol-1-ylmethyl)piperidine] | 63 ± 3.1 | 47 ± 0.3 | > 64 | – | – |
| O=C(OC(Cc1ccccc1)Cn1ccnc1)c1cc([N+](=O)[O-])cc([N+](=O)[O-])c1 (centres unmarked) [Compound 5, 1-benzyl-2-(1H-imidazol-1-yl)ethyl 3,5-dinitrobenzoate] | 82 ± 3.8 | 100 ± 1.7 | – | 144 to 145 | iNOS % inhibition (Recombinant human iNOS): complete enzyme inhibition; Chemical stability in acidic medium ([2]; HCl solution pH = 2.0, 37 °C, monitored for 24 h): stable; Chemical stability in neutral medium ([2]; Phosphate buffer pH = 7.4, 37 °C, monitored for 24 h): stable; half-life at 0.05 mg/mL ([2]; buffer, NaOH solution pH = 9.0, 37 °C, read-out: half-life of hydrolysis in basic medium): 39 min; IC50 ([1]; MCF7, 24 h): 120 µM; IC50 ([1]; MCF7, 48 h): 82.5 µM; IC50 ([1]; MCF7, 72 h): 68.8 µM; LDH released, fold increase vs control (MCF-7 cell line; 10 µM (lowest concentration tested)): 1.91 folds; LDH released, fold increase vs control (MCF-7 cell line; concentrations after the IC50 (120 µM)): 6.25 folds and 7.50 folds; MIC (C. albicans ATCC 90028; ATCC90028, 24 h): > 64 µg/mL |
| COc1ccc(S(=O)(=O)N2CCCC(Cn3ccnc3)C2)cc1Br (centres unmarked) [Compound 3o] | – | – | – | – | IC50 (aromatase): 0.006 µM |
| COc1ccc(NC(=S)OC(Cc2ccccc2)Cn2ccnc2)c(OC)c1 (centres unmarked) [Compound 7, O-[1-benzyl-2-(1H-imidazol-1-yl)ethyl] (2,4-dimethoxyphenyl)thiocarbamate] | 15 ± 0.3 | 7 ± 0.08 | > 64 | – | – |
| N#Cc1ccc(S(=O)(=O)N2CCCC(Cn3cncn3)C2)c(Cl)c1 (centres unmarked) [Compound 18, 3-chloro-4-{[3-(1H-1,2,4-triazol-1-ylmethyl)piperidin-1-yl]sulphonyl}benzonitrile] | 55 ± 1.1 | 14 ± 0.2 | > 64 | 81 to 82 | – |
| N#Cc1ccc(S(=O)(=O)N2CCCC(Cn3cncn3)C2)cc1 (centres unmarked) [Compound 19, 4-{[3-(1H-1,2,4-triazol-1-ylmethyl)piperidin-1-yl]sulphonyl}benzonitrile] | 48 ± 1.7 | 16 ± 0.7 | – | 95 to 96 | – |
| O=C(OC(Cc1ccccc1)Cn1ccnc1)c1ccc2ccccc2c1 (centres unmarked) [Compound 3, 1-benzyl-2-(1H-imidazol-1-yl)ethyl 2-naphthoate] | 13 ± 0.5 | 0 | 64 (≈ 180 µM) | 71 to 72 | – |
